Key:
Ovariectomized rats = experiment: Vaginal keratinization test on ovariectomized rats (Example C.2); type: in vivo; conditions: estradiol undecylate induced keratinization, per os once daily on days 1-3, active dose = 50% of rats show complete suppression
Summary of the method: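 Ovariectomized rats given s.c. estradiol undecylate (100 μg per 100 g body weight in sesame oil), then oral compound once daily on days 1-3 (vehicle PEG 200). Vaginas assessed histologically one day after last dose; lowest active dose (mg/kg) is the dose giving complete keratinization suppression in 50% of rats.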

[1] = tested on: metabolism of retinoic acid in human breast cancer cells; experiment: Inhibition of retinoic acid (RA) metabolism (Example C.1); type: cell-based; conditions: MCF-7 human breast cancer cells, 3H-RA as substrate; concentration needed to reduce the amount of metabolites to 50% of the control
Summary of the method: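 MCF-7 cells, pre-stimulated with RA the day before, incubated with ³H-RA substrate and test compound in 1% DMSO. Polar ³H-metabolites separated from unmetabolized RA and counted by scintillation. IC50 is the concentration cutting metabolite formation to 50% of control, with blank run alongside.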

Row | Compound | LAD (lowest active dose) (Ovariectomized rats) [mg/kg] | IC50 [1] [nM]
1 | CC(C)C(c1ccc(NC(=O)CC2COc3ccccc3O2)cc1)n1cncn1 (centres unmarked) [Compound 162] | >5.00 | 2.88
2 | CC(C)C(c1ccc(NC(=O)C2COc3ccccc3O2)cc1)n1ccnc1 (centres unmarked) [Compound 175] | 10.00 | 4.83
3 | CC(C)C(c1ccc(NC(=O)c2cccc3ccccc23)cc1)n1ccnc1 (centres unmarked) [Compound 182] | 10.00 | 13.1
4 | CCOC(=O)Nc1ccc(C(C(C)C)n2ccnc2)cc1 (centres unmarked) [Compound 183] | >10.00 | 7.4
5 | CC(C)C(c1ccc(NC(=O)c2cccs2)cc1)n1ccnc1 (centres unmarked) [Compound 187] | >10.00 | 18.8
6 | CC(C)C(c1ccc(NC(=O)C2(c3ccccc3)CC2)cc1)n1ccnc1 (centres unmarked) [Compound 190] | >10.00 | > 100
7 | CC(C)C(c1ccc(NC(=O)C2(c3ccccc3)CCCC2)cc1)n1ccnc1 (centres unmarked) [Compound 191] | >10.00 | > 100
8 | CC(C)C(c1ccc(NC(=O)c2cccn2C)cc1)n1ccnc1 (centres unmarked) [Compound 195] | >10.00 | 35.1
9 | CC(C)C(c1ccc(NC(=O)C2CC2)cc1)n1ccnc1 (centres unmarked) [Compound 199] | >10.00 | 7.82
10 | CC(C)C(c1ccc(NC(=O)C2(c3ccccc3)CCCCC2)cc1)n1ccnc1 (centres unmarked) [Compound 200] | >10.00 | 44.3
11 | CC/C(=C(\C)C(=O)Nc1ccc(C(C(C)C)n2ccnc2)cc1)c1ccccc1 (centres unmarked) [Compound 203] | >10.00 | 22.8
12 | COCC(=O)Nc1ccc(C(C(C)C)n2ccnc2)cc1 (centres unmarked) [Compound 212] | 20.00 | 4.07
13 | CC(C)C(c1ccc(NC(=O)c2ccc3nccnc3c2)cc1)n1ccnc1 (centres unmarked) [Compound 214] | 20.00 | 3.37
14 | CC(C)C(c1ccc(NC(=O)C2CCc3ccccc3O2)cc1)n1ccnc1 (centres unmarked) [Compound 217] | 10.00 | 5.14
15 | CC(C)C(c1ccc(NC(=O)c2cccc(F)c2)cc1)n1ccnc1 (centres unmarked) [Compound 221] | 10.00 | 1.08
16 | CC(C)C(c1ccc(NC(=O)CSc2ncccn2)cc1)n1ccnc1 (centres unmarked) [Compound 224] | >10.00 | 4.73
17 | CC(C)C(c1ccc(NC(=O)c2nccc3ccccc23)cc1)n1ccnc1 (centres unmarked) [Compound 229] | >10.00 | 1.64
18 | CC(C)C(c1ccc(NC(=O)C2=COc3ccccc3O2)cc1)n1ccnc1 (centres unmarked) [Compound 234] | 10.00 | 3.01
19 | CC(C)C(c1ccc(NC(=O)C2Oc3ccccc3O2)cc1)n1ccnc1 (centres unmarked) [Compound 248] | 2.50 | 1.79
20 | CC(O)C(=O)Nc1ccc(C(C(C)C)n2ccnc2)cc1 (centres unmarked) [Compound 249] | 5.00 | 75.8
21 | Cc1onc(-c2ccccc2)c1C(=O)Nc1ccc(C(C(C)C)n2ccnc2)cc1 (centres unmarked) [Compound 250] | >10.00 | 14.9
22 | CC(C)C(c1ccc(NC(=O)Cc2cccnc2)cc1)n1ccnc1 (centres unmarked) [Compound 251] | 10.00 | 3.93
23 | CNC(=O)Nc1ccc(C(C(C)C)n2ccnc2)cc1 (centres unmarked) [Compound 267] | >10.00 | 7.75
24 | CC(C)C(c1ccc(NC(=O)NCc2ccccc2)cc1)n1ccnc1 (centres unmarked) [Compound 269] | >10.00 | 2.66
25 | CC(C)C(c1ccc(NC(=O)NCc2ccc(Cl)cc2)cc1)n1ccnc1 (centres unmarked) [Compound 273] | >10.00 | 52.7
26 | CC(C)CCC(c1ccc(NC(=O)Cc2ccc(Cl)cc2)cc1)n1ccnc1 (centres unmarked) [Compound 355] | >10.00 | > 100

Row | Compound | LAD (lowest active dose) (Ovariectomized rats) [mg/kg] | IC50 [1] [nM]
27 | O=C(Cc1ccc(Cl)cc1)Nc1ccc(C(c2ccccc2)n2ccnc2)cc1 (centres unmarked) [Compound 357] | >10.00 | > 100
28 | O=C(Cc1ccc(Cl)cc1)Nc1ccc(C(c2cccc(C(F)(F)F)c2)n2ccnc2)cc1 (centres unmarked) [Compound 361] | 10.00 | > 100
29 | O=C(Cc1ccc(Cl)cc1)Nc1ccc(C(C2CCCCC2)n2ccnc2)cc1 (centres unmarked) [Compound 362] | 10.00 | 14.3
30 | CCCC(c1ccc(NC(=O)Cc2ccc(Cl)cc2)cc1)n1ccnc1 (centres unmarked) [Compound 363] | >10.00 | 1.42
31 | CC(C)(C)C(c1ccc(NC(=O)Cc2ccc(Cl)cc2)cc1)n1ccnc1 (centres unmarked) [Compound 365] | 10.00 | 1.08
32 | CCC(c1ccc(NC(=O)Cc2ccc(Cl)cc2)cc1)n1ccnc1 (centres unmarked) [Compound 372] | 5.00 | 1.97
33 | O=C(Nc1ccc(C(c2ccccc2)n2ccnc2)cc1)C(O)c1ccccc1 (centres unmarked) [Compound 420] | >20.00 | 83.8
34 | O=C(Nc1ccc(C(c2ccc(Cl)cc2)n2ccnc2)cc1)C(O)c1ccccc1 (centres unmarked) [Compound 423] | 20.00 | 40.8
35 | O=C(Nc1ccc(C(c2ccccc2)n2ccnc2)cc1)C1COc2ccccc2O1 (centres unmarked) [Compound 425] | >10.00 | 38.1
36 | O=C(CC1COc2ccccc2O1)Nc1ccc(C(c2ccccc2)n2ccnc2)cc1 (centres unmarked) [Compound 426] | >10.00 | > 100
37 | CCC(C)C(c1ccc(NC(=O)Cc2ccc(O)c(OC)c2)cc1)n1ccnc1 (centres unmarked) [Compound 432] | >2.50 | 0.81
38 | CC(C)C(c1ccc(NC(=O)C(=Cc2ccccc2)c2ccccc2)cc1)n1ccnc1 (centres unmarked) [Compound 454] | >20.00 | 52.5
39 | CC(C)/C(=C\c1ccccc1)C(=O)Nc1ccc(C(C(C)C)n2ccnc2)cc1 (centres unmarked) [Compound 471] | >10.00 | > 100
40 | C/C(=C\c1ccccc1)C(=O)Nc1ccc(C(CCC(C)C)n2ccnc2)cc1 (centres unmarked) [Compound 475] | >10.00 | > 100
41 | CC(=Cc1ccccc1)C(=O)Nc1ccc(C(CC(C)(C)C)n2ccnc2)cc1 (centres unmarked) [Compound 476] | >10.00 | 35.5
42 | C/C(=C\c1ccccc1)C(=O)Nc1ccc(C(/C=C/C(C)C)n2ccnc2)cc1 (centres unmarked) [Compound 479] | >10.00 | > 100
43 | CCCC(CCC)C(c1ccc(NC(=O)/C(C)=C/c2ccccc2)cc1)n1ccnc1 (centres unmarked) [Compound 486] | 5.00 | 27.7
44 | CC(=O)Nc1ccc(C(c2cccc(C(F)(F)F)c2)n2ccnc2)cc1 (centres unmarked) [Compound 524] | 20.00 | > 1000
45 | C/C(=C\c1ccncc1)C(=O)Nc1ccc(C(C(C)C)n2ccnc2)cc1 (centres unmarked) [Compound 576] | 10.00 | 20.1
46 | C/C(=C\c1ccc(C(F)(F)F)cc1)C(=O)Nc1ccc(C(C(C)C)n2ccnc2)cc1 (centres unmarked) [Compound 580] | 10.00 | 31.3
47 | C/C(=C\C1CCCCC1)C(=O)Nc1ccc(C(C(C)C)n2ccnc2)cc1 (centres unmarked) [Compound 581] | 20.00 | > 100
48 | COc1cccc(/C=C(\C)C(=O)Nc2ccc(C(C(C)C)n3ccnc3)cc2)c1 (centres unmarked) [Compound 584] | 10.00 | 6.51
49 | C/C(=C\C(C)C)C(=O)Nc1ccc(C(C(C)C)n2ccnc2)cc1 (centres unmarked) [Compound 588] | 10.00 | 48.8
50 | CC(=Cc1cc2ccccc2o1)C(=O)Nc1ccc(C(C(C)C)n2ccnc2)cc1 (centres unmarked) [Compound 600] | >10.00 | 36.7
51 | CC(=O)Nc1ccc(/C=C(\C)C(=O)Nc2ccc(C(C(C)C)n3ccnc3)cc2)cc1 (centres unmarked) [Compound 612] | 10.00 | 16.8
52 | CC(=O)Nc1ccc(C(c2cccc(C(F)(F)F)c2)n2cncn2)cc1 (centres unmarked) [Compound 613] | >20.00 | 1800

From patent US7179825B2, “Retinoic acid mimetic anilides” (Janssen Pharmaceutica N.V., priority 1997, dated 2007)
